From patent publication US11998600B2, “Enhancing the therapeutic activity of an immune checkpoint inhibitor” (MaineHealth, priority 2015, dated 2024)

Experiments:
P38MAPK = P38MAPK phosphorylation in HUVECs attached to collagen peptides, Western blot; assay type: cell-based, human; settings: PP2 10 μM vs DMSO; FIG. 7F
Description: (§1) Endothelial cells (HUVECs or HRMVECs) were incubated in serum free media with 1 mM MgCl2, 0.2 mM MnCl2 in the presence of a Src inhibitor, PP2, (10 μM) a P38MAPK inhibitor, SB202190 (10 μM) or vehicle only (DMSO) for 10 min at 37° C. Treated cells were then seeded on to immobilized P-1 and P-2 and lysates were collected at 15 min.
Whole cell and CAM tissue lysates were collected in RIPA buffer supplemented with 1× protease inhibitor and 1× phosphatase inhibitor and were run on polyacrylamide gels using denaturing conditions. Prior to loading the gels, 6× sample buffer was added to each of the lysates (final concentration 1×) and boiled for five minutes. Twenty to 50 μg of total protein were loaded into each lane. For detection of proteins larger than 50 kD, 10% gels were used; for proteins smaller than 50 kD 15% gels were used. Gels were run at 60 volts (v) until the dye front passed through the stacking gel, and then the voltage was increased to 100V for the remainder of the separation. Precision Plus protein standards (Bio-Rad) were used to visualize migration. Protein was transferred to nitrocellulose membranes using a wet tank system and blocked for 1 h using 10% non-fat dried milk in tris-buffered saline with 0.01% Tween-20 (TBS-T). […] Western blot bands were quantified using Image J software based on pixel intensity. […]

YAP = assay: Nuclear YAP in HRMVEC stimulated with soluble peptide, with Src or P38MAPK inhibitor; assay type: cell-based, human; settings: inhibitors 10 μM; FIGS. 8E and 8F
β3-integrin = β3-integrin phosphorylation in endothelial cells attached to collagen peptides, Western blot; assay type: cell-based, human; settings: PP2 10 μM vs DMSO; FIG. 7E
Description: as §1
Whole cell and CAM tissue lysates were collected in RIPA buffer supplemented with 1× protease inhibitor and 1× phosphatase inhibitor and were run on polyacrylamide gels using denaturing conditions. Prior to loading the gels, 6× sample buffer was added to each of the lysates (final concentration 1×) and boiled for five minutes. Twenty to 50 μg of total protein were loaded into each lane. For detection of proteins larger than 50 kD, 10% gels were used; for proteins smaller than 50 kD 15% gels were used. […] Western blot bands were quantified using Image J software based on pixel intensity.
(§2) Because both RGD containing peptides bind αvβ3 coupled with the differential effect of these peptides on angiogenesis and inflammation, it was determined whether the RGD peptides differentially altered αvβ3-mediated signaling. […] Therefore, the differential phosphorylation of these protein kinases following the early mechanical-mediated interactions with the RGD containing collagen peptides was assessed. […]

[1] = test system: chick chorioallantoic membrane (CAM); assay: Chick CAM angiogenesis assay, induction by RGD collagen peptides; assay type: in vivo; settings: inhibitor SB202190 10 μM vs DMSO control; FIG. 6F
Description: (§3) The chick chorioallantoic membrane (CAM) assays were carried out with some modifications (19). For all experiments CAMs of 10-day-old chick embryos obtained from Charles River (North Franklin, CT) were separated from the shell membrane. Filter discs either non-treated (inflammation assays) pretreated (angiogenesis assays) with cortisone acetate (3.0 mg/ml) containing RPMI only or FGF-2 (40 ng). CAMs were either non-treated or treated topically with Mab XL313, XL166 or a non-specific control antibody (10 μg/embryo every 24 h for three consecutive treatments). […] At the end of the incubation period the embryos were sacrificed and the CAM tissues were analyzed. Angiogenesis was quantified by counting the number of angiogenic branching blood vessels within the area of the filter disc. The angiogenic index was determined by subtracting the mean number of blood vessel branch points from untreated CAMs from each experimental condition. Eight to twelve embryos were used per condition and experiments were repeated at least three times.
To examine this possibility, the effects of the RGDKGE (SEQ ID NO. 1) containing collagen peptide on angiogenesis and inflammation in the chick CAM were assessed.

[2] = test system: chick chorioallantoic membrane (CAM); assay: Chick CAM inflammation assay, FGF-2 induced, antibody treatment; assay type: in vivo; settings: chick CAM, FGF-2 stimulated; vs no treatment or control antibody; FIG. 3E
Description: as §3, with “Eight to twelve embryos were used per condition and experiments were repeated at least three times.” left out
The chick CAM has been routinely used to assess inflammation and granulation tissue formation, which are largely dependent on infiltration of chick heterophils (the avian equivalent of neutrophils), macrophages and activated fibroblasts (36,37). To study the potential differential biological impact of RGD epitopes, FGF-2 induced inflammation was examined by carrying out similar experiments in the absence of cortisone acetate and quantifying CAM thickening. […]

Fak = Fak phosphorylation in endothelial cells attached to collagen peptides; assay type: cell-based, human; settings: serum free conditions
Description: Whole cell and CAM tissue lysates were collected in RIPA buffer supplemented with 1× protease inhibitor and 1× phosphatase inhibitor and were run on polyacrylamide gels using denaturing conditions. Prior to loading the gels, 6× sample buffer was added to each of the lysates (final concentration 1×) and boiled for five minutes. Twenty to 50 μg of total protein were loaded into each lane. For detection of proteins larger than 50 kD, 10% gels were used; for proteins smaller than 50 kD 15% gels were used. Gels were run at 60 volts (v) until the dye front passed through the stacking gel, and then the voltage was increased to 100V for the remainder of the separation. Precision Plus protein standards (Bio-Rad) were used to visualize migration. […] Western blot bands were quantified using Image J software based on pixel intensity.
as §2

HUVEC = assay: Cell proliferation assay, HUVEC; assay type: cell-based, human; settings: peptide 100 ng/ml, 24 hours; FIG. 8C
Description: (§4) HUVECs (WT, shYAP1 or control transfected) or HRMVECs were plated at 2,000 cells per well with complete EGM-2 media containing 2.0% FBS in the absence or presence of P-1, P-2 or P-C (100 ng/ml) and allowed to grow for 24 hours. Cell growth was monitored using a BrdU or MMT assay kits according to manufacturer's instructions. All assays were completed at least three times in triplicate wells.

HRMVEC = assay: Cell proliferation assay, HRMVEC; assay type: cell-based, human; settings: peptide 100 ng/ml, 24 hours; FIG. 8D
Description: as §4

[3] = test system: chick chorioallantoic membrane (CAM); assay: Chick CAM inflammation assay, induction by RGD collagen peptides; assay type: in vivo; settings: chick CAM, no cortisone acetate; FIG. 5D
Description: as §3
The effects of the soluble RGD containing collagen peptides on inflammation were examined.

[4] = test system: human microvascular endothelial cells (HMVEC); assay: Cell adhesion to immobilized RGD collagen peptides, HMVEC; assay type: cell-based; settings: peptides immobilized 100 μg/ml; FIG. 1B
Description: (§5) RGD peptides (P-1, P-2, P-3, P-4, P-5, and P-C) were immobilized (100 μg/ml) to wells. HUVEC, HMVEC, HRMVEC, and HDF cells were suspended in adhesion buffer (RPMI containing 1 mM MgCl2, 0.2 mM MnCl2 and 0.5% BSA) and 1×10^5 cells were seeded into the wells in the presence or absence of P4C10, LM609, P1F6 or control antibodies (100 μg/ml). Cells were allowed to attach for 25 min at 37° C. Media containing non-attached cells was aspirated and attached cells were washed with PBS and stained with crystal violet. Cell adhesion was quantified by measuring the optical density of eluted dye. Adhesion assays were completed at least three times with triplicate wells.

[5] = test system: human umbilical vein endothelial cell (HUVEC); assay: Cell adhesion to immobilized RGD collagen peptides, HUVEC; assay type: cell-based; settings: peptides immobilized 100 μg/ml; 25 min at 37° C; FIG. 1A
Description: as §5

[6] = test system: human retinal microvascular endothelial cells (HRMVEC); assay: Cell adhesion to immobilized RGD collagen peptides, HRMVEC; assay type: cell-based; settings: peptides immobilized 100 μg/ml; FIG. 1C
Description: as §5

human dermal fibroblasts = assay: Cell adhesion to immobilized RGD collagen peptides, HDF; assay type: cell-based; settings: peptides immobilized 100 μg/ml; FIG. 1D
Description: as §5

[7] = test system: endothelial cells in which YAP was knocked down; assay: Cell proliferation assay, endothelial cells transduced with YAP specific shRNA; assay type: cell-based, human; settings: soluble peptide (FIG. 8H) or VEGF 50 ng/ml (FIG. 8I)
Description: as §4
Raw cells were transfected with 1 μg of HuSH shRNA plasmids for collagen type I, alpha 2 using Amaxa cell line nucleofector kit V (program #T024). Constructs expressing 21-nucleotide short hairpin RNAs (shRNA) targeting human YAP (shYAP) or non-targeting control (shNT, Sigma-Aldrich, SHC002) were used. Humantargeting shYAP1 lentiviral shRNA was obtained from the Thermo Scientific RNAi consortium (TRCN0000107625). Constructs were packaged into lentivirus, pseudotyped with the vesicular stomatitis virus glycoprotein. Transduction was performed by incubating cells with lentivirus, and stably transduced cells were subsequently used for studies. All cell lines were verified by morphology and mouse and human YAP-specific PCR. […] Endothelial cells were certified mycoplasma-negative by PCR (Lonza), and primary cell cultures were used within the indicated passage numbers. Cells were transduced and selected using puromycin.
Endothelial cells with YAP specific or non-specific shRNAs were transduced.

Q: Which “P38MAPK phosphorylation following binding to collagen peptide P-2, with inhibitor” value (P38MAPK) does the source give for `CC(C)(C)n1nc(-c2ccc(Cl)cc2)c2c(N)ncnc21` [PP2, reference compound] here?
A: reduced

Q: And the “reduction of nuclear YAP accumulation in P-2 stimulated endothelial cells as compared to control” value (YAP)?
A: approximately 50%

Q: What about the “β3 phosphorylation following binding to collagen peptide P-2, with inhibitor” value (β3-integrin) of the same compound?
A: reduced

Q: Which “effect on P-2 induced angiogenesis in the chick CAM” value [1] does the source give for `Oc1ccc(-c2nc(-c3ccncc3)c(-c3ccc(F)cc3)[nH]2)cc1` [SB202190, reference compound] here?
A: reduced

Q: And the “reduction of nuclear YAP accumulation in P-2 stimulated endothelial cells as compared to control” value (YAP)?
A: approximately 50%

Q: `CC(=O)OCC(=O)[C@@]1(O)CC[C@H]2[C@@H]3CCC4=CC(=O)CC[C@]4(C)[C@H]3C(=O)C[C@@]21C` [cortisone acetate, reference compound] was tested. Which “reduction of CAMs exhibiting inflammation (thickening)” value [2] did it give?
A: greater than 80%

Q: Which results are given for “KGDRGDAPG [Mab P-1, Synthetic RGDAPG containing collagen type-I peptide, Colla1 742-750; made with flanking cysteines (…)]”?
A: Fak phosphorylation following ligation of peptide (Fak): Minimal Fak phosphorylation; HUVEC growth with soluble peptide (HUVEC): minimal effect; HRMVEC growth with soluble peptide (HRMVEC): minimal effect; CAM inflammation following stimulation with peptide [3]: Minimal evidence of tissue inflammation

Q: QGPSGAPGE [P-C, reference compound] was tested. Which “HMVEC adhesion to immobilized peptides” value [4] did it give?
A: failed to support interactions

Q: What about the “HUVEC adhesion to immobilized peptides” value [5] of the same compound?
A: failed to support adhesion

Q: And the “HRMVEC adhesion to immobilized peptides” value [6]?
A: failed to support interactions

Q: And the “HDF adhesion to immobilized peptides” value (human dermal fibroblasts)?
A: failed to support interactions

Q: And the “CAM inflammation following stimulation with peptide” value [3]?
A: Minimal evidence of tissue inflammation

Q: How did the “HUVEC adhesion to immobilized peptides” value [5] turn out when “RGPRGDQGP [Mab P-5, Synthetic RGD containing collagen type-I peptide, Colla2 819-827 (…)]” was run?
A: highest levels of adhesion

Q: For VEGF, which “endothelial cell growth in YAP knock down cells” value [7] is on record?
A: enhanced growth
